The values that follow come from US20090232796A1, “METHOD OF TREATING CANCER BY ADMINISTERING AN IMMUNOMODULATORY COMPOUND IN COMBINATION WITH A CD40 ANTIBODY OR CD40 LIGAND” (priority 2008, published 2009).

Test [1] concerns B-CLL cells. The test is described as follows: Response of B-CLL cells to CD40L-transfected fibroblasts after compound pre-treatment. The following applies: for response of B-CLL cells to CD40L treatment (percentage of viable cells per ml): relapsed patient at baseline, pre-treated 48 hours, then coculture with CD40L-transfected or control fibroblasts 48 hours (FIG. 5). It is filed as cell-based, human. An excerpt: (§1) L929 cells are derived from an immortalized mouse fibroblast cell line, and are routinely used in in-vitro assays. The L929 cells used herein were obtained from the American Type Culture Collection (ATCC). Raji cells were also obtained from ATCC. Namalwa cells were obtained from the German Resource Centre for Biological Materials DSMZ. B-CLL cells were obtained from the peripheral blood of patients enrolled in a clinical trial.
(§2) Namalwa, Raji, CD40L-transfected fibroblasts and L929 fibroblasts were cultured in RPMI medium (Gibco-Invitrogen) supplemented with 10% FBS. B-CLL cells were cultured in Iscove's medium (Gibco-Invitrogen) plus 15% FBS. Namalwa, Raji and B-CLL cells were cultured with compounds from 2 to 4 days. Fibroblasts were maintained in culture in monolayers. The day before the co-culture, the fibroblasts were treated with mitomycin C to stop proliferation and were then replated. Suspension cells were then added to the fibroblasts and the culture was incubated for 2 to 4 days.
(§3) Flow cytometry was then used to determine cell numbers and the percentage of apoptotic cells using the FACSArray system (BD Biosciences). The cells were stained with 7-Amino-Actinomycin D (7-AAD) (BD Pharmingen) for 10 minutes at room temperature prior to flow cytometry analysis in order to identify non-viable cells.
Pre-treatment with immunomodulatory compounds also augmented the sensitivity of Namalwa cells and CLL cells to CD40 ligation by CD40L. B-CLL cells taken from a relapsed patient at baseline were pre-treated with either 1,3-dioxo-2-(2,6-dioxopiperidin-3-yl)-4-aminoisoindoline or 1-oxo-2-(2,6-dioxopiperidin-3-yl)-4-aminoisoindoline for 48 hours. The cells were then cocultured with either CD40L-transfected fibroblasts or control fibroblasts for another 48 hours. The percentage of viable cells per ml was then measured (FIG. 5). Cells from another patient were pretreated with 1-oxo-2-(2,6-dioxopiperidin-3-yl)-4-aminoisoindoline for 24 hours and then cocultured with either CD40L-transfected fibroblasts or control fibroblasts for an additional 48 hours.

In test [2] the test system is Raji cells. The test is described as follows: CD40 expression on Raji cells by flow cytometry. Type of test: cell-based. Particulars: 10 μM, 48 hours of incubation, vs DMSO control (FIG. 1).
Test [3] deals with B-CLL cells. The test can be described thus: CD40 expression in cultured B-CLL cells (anti-CD40 APC antibody mean intensity). It is filed as cell-based, human. The following applies: for mean intensity of anti-CD40 APC antibody: CD5+ CD19+ CLL blasts from a newly diagnosed patient, 4 days in culture (FIG. 2).
Test [4] has as its system Namalwa cells. The test is described as follows: Proliferation of Namalwa cells alone, with control fibroblasts or with CD40L-expressing fibroblasts. Type of test: cell-based. Particulars: for sensitivity of Namalwa cells to CD40 ligation by CD40L: pre-treatment with compound, CD40L transfected fibroblasts (FIG. 4).
Excerpt: as §1, §2, §3

Test [5] has as its system CD19^+CD5^+ cells. The test is described as follows: CD40 on CD19+CD5+ cells of patients undergoing therapy, flow cytometry. Type of test: in vivo, human.
In test [6] the test system is normal primary B cells. The test is described as follows: Effect on normal primary B cells (p21 expression, viable cells). It is filed as cell-based. The following applies: for viable normal B cells: normal primary B cells in culture; for level of p21 expression: normal primary B cells, after 24 hours and 72 hours of culture. The protocol: as §3
Total RNA was isolated from Namalwa and B-CLL cells using RNAeasy (Qiagen). Gene expression analysis was performed using Affymetrix human U133A gene chips. Double-stranded cDNA was synthesized using […] of total RNA. Biotin-labeled cRNA was synthesized using a MessageAmp aRNA kit (Ambion). […] of cRNA was fragmented and hybridized to each array. The above procedures were performed twice for each RNA sample to obtain replicate biotin-labeled probes.
Cells cultured in the presence or absence of 1,3-dioxo-2-(2,6-dioxopiperidin-3-yl)-4-aminoisoindoline or 1-oxo-2-(2,6-dioxopiperidin-3-yl)-4-aminoisoindoline were characterized using flow cytometry and gene array analysis.

In the case of `Nc1cccc2c1CN(C1CCC(=O)NC1=O)C2=O` (stereo not drawn) [1-oxo-2-(2,6-dioxopiperidin-3-yl)-4-aminoisoindoline], the “response of B-CLL cells to CD40L treatment (total cells/ml)” value in test [1] (newly diagnosed patient, pre-treated 0.1, 1.0 or 10 μM 24 hours, then CD40L-transfected or control fibroblasts 48 h (FIG. 6)) is “increases the response of B-CLL cells to CD40L treatment”. In test [1], the “response of B-CLL cells to CD40L treatment (percentage of viable cells per ml)” value is reported as “increases the response of B-CLL cells to CD40L treatment”. Moreover, the “percentage of CD40+ cells” value in test [2] is on record as “increase the number of CD40^+ Raji cells”. For the same molecule, in test [3], the “mean intensity of anti-CD40 APC antibody” value is listed as “approximately doubled”. In addition, the “sensitivity of Namalwa cells to CD40 ligation by CD40L” value in test [4] is “increased the sensitivity of Namalwa cells to CD40 ligation by CD40L”. Further, the “CD40+ cells among CD19+CD5+ cells” value in test [5] (patient of FIG. 7, after 8 days of therapy, baseline 6.4%) amounted to 57.4%; in test [5] (patient of FIG. 8, after 8 days of therapy, baseline 12.5%), 36.7%; in test [5] (patient of FIG. 9, after 28 days of therapy, baseline 2.4%), 13.9%. Moreover, the “CD40 in B-CLL cells of patients” value in test [5] (patients undergoing therapy, summary statement) is recorded as “upregulation of CD40 in B-CLL cells”. For the same molecule, the “viable normal B cells” value in test [6] was “dose-dependent increase in viable normal B cells”. Besides, the “level of p21 expression” value in test [6] is given as “did not increase the level of p21 expression”.

Consider `Nc1cccc2c1C(=O)N(C1CCC(=O)NC1=O)C2=O` (stereo not drawn) [1,3-dioxo-2-(2,6-dioxopiperidin-3-yl)-4-aminoisoindoline], for which the “response of B-CLL cells to CD40L treatment (percentage of viable cells per ml)” value in test [1] is given as “increases the response of B-CLL cells to CD40L treatment”. In test [2], the “percentage of CD40+ cells” value was “increase the number of CD40^+ Raji cells”. Further, the “mean intensity of anti-CD40 APC antibody” value in test [3] is recorded as “approximately doubled”. Also, the “mean intensity of anti-CD40 APC antibody in CD5+CD19+ CLL blasts” value in test [3] (newly diagnosed patient, 0.1, 1.0 or 10 μM, 24 hours, vs DMSO (FIG. 3)) is given as “augments the expression of CD40 in a dose responsive manner”. The “proliferation of Namalwa cells” value in test [4] (0.01-10 μM, alone or in the presence of control fibroblasts (FIG. 4)) is “inhibiting cell proliferation in a dose dependent manner”. The “sensitivity of Namalwa cells to CD40 ligation by CD40L” value in test [4] is on record as “increased the sensitivity of Namalwa cells to CD40 ligation by CD40L”. In test [6], the “viable normal B cells” value is “dose-dependent increase in viable normal B cells” and the “level of p21 expression” value is given as “did not increase the level of p21 expression”.

B1: CD40L: CD40 ligand, used in the form of CD40L transfected fibroblasts (protein, UniProt P29965 113-261, looked up)
CD40 ligand, soluble form: MQKGDQNPQIAAHVISEASSKTTSVLQWAEKGYYTMSNNLVTLENGKQLTVKRQGLYYIYAQVTFCSNREASSQAPFIASLCLKSPGRFERILLRAANTHSSAKPCGQQSIHLGGVFELQPGASVFVNVTDPSQVSHGTGFTSFGLLKL
modifications: expressed on transfected fibroblasts
B1: the “cell growth / cell apoptosis” value in test [1] (B-CLL cells treated with CD40L transfected fibroblasts) and in test [4] (Namalwa cells treated with CD40L transfected fibroblasts) was “inhibit cell growth and/or augment cell apoptosis” in each case.
